Measurements from patent publication US6046219A, “Method for the treatment of conditions mediated by collagen formation together with cell proliferation by application of inhibitors of protein hydroxylation” (Cornell Research Foundation, Inc., priority 1997, dated 2000).
“Also recorded” adds a separate entry of the source. One block for each compound: values may come before it.

What was measured:
[1] = target: T1, purified human prolyl 4-hydroxylase (Homo sapiens, UniProt P13674); assay: Assay of purified human prolyl 4-hydroxylase (14CO2 release from 2-oxoglutarate, cell-free); assay type: biochemical; settings: for Prolyl 4-hydroxylase ID50 (purified): purified human enzyme, inhibitory dose that gives 50% reduction of the enzyme-mediated reaction, unit assumed
T1 construct: made in house; host or cells: Spodoptera frugiperda insect cells (baculovirus, co-expression of α- and β-subunits)
Protocol: The effect on the enzyme was determined in a cell-free system by measuring the oxidative decarboxylation of its cofactor 2-oxoglutarate via release of radiolabeled carbon dioxide in a standard reaction mixture also containing ascorbate, ferrous sulfate, and unhydroxylated peptide substrate.
(§1) The inhibitory action of the substances according to the invention, for example on collagen secretion or cell proliferation, can be tested in direct assays of the enzymes mediating the pivotal protein hydroxylations for these biological processes, such as prolyl 4-hydroxylase and deoxyhypusyl hydroxylase. This entails the enzymatic hydroxylation of the appropriate protein precursor, either by the cellular or the purified enzyme, in the presence or absence of compounds of Formulae (I) or (II), with concomitant determination of co-substrate utilization by these enzymes or subsequent isolation of the hydroxylated amino acid and its unhydroxylated precursor. In this manner, the inhibitory potency of any given compound can be measured in the cell-free system, in cell culture, or in tissue, and is expressed as the inhibitory dose that gives a 50% reduction of the enzyme-mediated reaction (ID50). Enzyme is tested in analogy to the method of A. Abbruzzese, H. M. Hanauske-Abel, et al., Biochem. Biophys. Acta, 1077, 159-166 (1991) and of K. Majamaa, H. M. Hanauske-Abel, et al., Eur. J. Biochem. 138, 239-245 (1984), which are hereby incorporated by reference. Table III lists the ID50 values of some of the compounds according to the invention, using purified human prolyl 4-hydroxylase and cellular human deoxyhypusyl hydroxylase as representative protein hydroxylases.
The inhibiting effect of hydroxypyridones on the collagen-hydroxylating enzyme was studied in a cell-free system.
Assay of purified human prolyl 4-hydroxylase
The native α2 β2 -tetrameric enzyme was purified to homogeneity by poly(L-proline) affinity chromatography and DEAE chromatography from the supernatant of Spodoptera frugiperda insect cells cotransfected with recombinant baculovirus transfer vectors for both the human α- and β-subunits. Enzyme activity was determined by trapping of ^14 CO2 released from 2-oxo[1-^14 C][glutarate] according to the procedure of Majamaa, et al., Eur. J. Biochem., 138:239-245 (1984), which is hereby incorporated by reference. Briefly, all incubations were run for 60 minutes at 37° C. in a final volume of 1.0 ml per test sample, containing 0.1 μg enzyme, 0.1 mg heat-denatured (Pro-Pro-Gly)10 ×9 H2 O as hydroxylatable substrate, 0.1 mM 2-oxo[1-^14 C][glutarate] adjusted to 60,000 dpm by mixing with the unlabeled 2-oxoglutarate as cosubstrate, and cofactors (1.6 mM ascorbate, 0.05 mM ferrous sulfate, 0.08 mM dithiothreitol, 2 mg bovine serum albumin, 5 μL catalase). Assays are performed with only one of the active compounds at any given time.

[2] = target: T2, cellular human deoxyhypusyl hydroxylase (Homo sapiens, UniProt Q9BU89); assay: Cellular human deoxyhypusyl hydroxylase (DOHH assay, 3H-spermidine labeling); assay type: cell-based; settings: for Deoxyhypusyl hydroxylase ID50 (cellular): cellular human enzyme, inhibitory dose that gives 50% reduction of the enzyme-mediated reaction, unit assumed
T2 construct: endogenous in cells; host or cells: cultured human cells (smooth muscle cells, B-lymphocytes)
T2 sequence (Q9BU89 1-302): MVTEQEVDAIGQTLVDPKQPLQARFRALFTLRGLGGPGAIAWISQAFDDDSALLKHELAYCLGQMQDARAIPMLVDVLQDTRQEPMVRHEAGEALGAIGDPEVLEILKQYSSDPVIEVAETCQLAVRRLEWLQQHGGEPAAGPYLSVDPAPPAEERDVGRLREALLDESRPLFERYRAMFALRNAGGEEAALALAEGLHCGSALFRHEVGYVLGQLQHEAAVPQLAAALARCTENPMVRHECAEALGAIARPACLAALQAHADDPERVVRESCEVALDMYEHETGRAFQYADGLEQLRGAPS
Excerpt: as §1
The inhibiting effect of hydroxypyridones on the eIF-5A-hydroxylating enzyme was studied in cultured human cells (i.e. smooth muscle cells, B-lymphocytes).
The cellular conversion of the precursor deoxyhypusine to the hydroxylated hypusine in cells was examined, after preincubation with the inhibitor for 60 minutes, by labeling the human cells with ^3 H-spermidine (5 μCi/ml) in 25 cm^2 flasks (1×10^6 cells/flask) for 24 hours prior to cell lysis, precipitation with 10% TCA containing 1 mM each of putrescine, spermidine, and spermine, and hydrolysis in 6 N HCl at 110° C. for 16 hours. The hydrolysate was analyzed for labeled amino acids on an amino acid analyzer by published methods (Park et al., J. Biol. Chem., 257:7217-7222 (1982), which is hereby incorporated by reference). The retention of purified hypusine and deoxyhypusine was determined from standards.

[3] = system: human SMC from fibroproliferative vascular lesions; assay: Cell proliferation: DNA synthesis (3H-thymidine) in SMC; assay type: cell-based
Protocol: The effect of the structural hydroxypyridone analog kojic acid is shown for comparison. Serum-stimulated DNA synthesis in SMC was determined by a 4-hour pulse of ^3 H-thymidine given 20 hours after treatment with L-mimosine and kojic acid (filled symbols). Identically treated, but unlabeled cells cultured in parallel, at that time point were washed and returned to fresh culture media without inhibitor for an additional 20 hours prior to otherwise identical labeling with ^3 H-thymidine (open symbols). Data is expressed as ^3 H-thymidine incorporated per cell to compensate for the reduced cell number in the wake of inhibitor treatment.
Inhibition of DNA synthesis was examined by semiautomated methods. SMC were plated at 1×10^4 cells/well in 96-well microtiter plates at least 24 hours prior to the assay. Agents were introduced into normal serum-containing growth media for 20 hours before the cells were pulsed with ^3 H-thymidine (1 μCi/ml) for 4 hours. Cells were collected with a cell harvester and the DNA-incorporated label determined by scintillation counting (Betaplate; Wallac, Inc., Gaithersburg, Md.) (n=6 per point).

[4] = system: human umbilical vein endothelial cells (HUVEC); assay: Endothelial cell proliferation (tritiated thymidine incorporation); assay type: cell-based; settings: 24 hours
Protocol: Human umbilical vein endothelial cells ("HUVEC") were treated with the specified concentrations of deferiprone (X-axis) for 24 hours prior to evaluating tritiated thymidine (3H-Tdr) incorporation into DNA for 4 hours. The results are expressed per well and the bars at each point reflect the standard error of the mean (S.E.M., n=3). Decreasing 3H-Tdr incorporation would reflect reduced endothelial cells proliferation.
Endothelial cell proliferation was determined by essentially the same methods previously disclosed for the determination of smooth muscle proliferation. Human umbilical vein endothelial cells ("HUVEC") were isolated and subcultured in Medium 199 containing 15% fetal bovine serum ("FBS"), endothelial cell growth factor ("ECGF", 5 ng/ml), heparin (9 μg/ml), and antibiotics. The cells were plated in 96-well dishes at 1×10^4 cells per well and then allowed to attach for 24 hours. The medium was removed, and the cells were changed to media containing deferiprone at 50, 100, 200, or 500 μM. After 24 hours, tritiated thymidine was added to the wells and allowed to incorporate into the DNA for 4 hours prior to isolation of the nuclear DNA by standard methods. The results are expressed as the counts per minute ("cpm") of radioactivity per well, which is proportional to the rate of DNA synthesis during the 4 hour labelling period.

HUVEC = assay: Endothelial cell tube formation on Matrigel; assay type: cell-based, human; settings: 24 hours
Protocol: HUVEC form tubes when plated on Matrigel and this is a commonly used as an in vitro model of capillary formation. In the FIG. 10A, it is shown that untreated HUVEC form capillary-like tubes (ARROW) when placed on Matrigel for 24 hours.
Endothelial cell tube formation was determined by plating HUVEC on a thick Matrigel (Becton Dickinson Labware) gel at a density of 5×10^4 cells per well of 24 well dish. Deferiprone was incubated with the cells for 30 minutes in solution prior to applying the cells to the Matrigel. The cells were added to the Matrigel-coated well, and, then 4 hours and 24 hours later, the cells were observed and photographed at a reproducible location.

[5] = orally active; established characteristics; cited from earlier work
[6] = target: T3, purified rat deoxyhypusyl hydroxylase (Rattus norvegicus, UniProt Q5PPJ4); assay: DOHH assay, purified rat deoxyhypusyl hydroxylase, conversion of deoxyhypusine-containing eIF-5A precursor; assay type: biochemical; settings: unhydroxylated eIF-5A precursor, purified rat enzyme
T3 construct: probably testis; substrate unhydroxylated eIF-5A precursor
T3 sequence (Q5PPJ4 1-302): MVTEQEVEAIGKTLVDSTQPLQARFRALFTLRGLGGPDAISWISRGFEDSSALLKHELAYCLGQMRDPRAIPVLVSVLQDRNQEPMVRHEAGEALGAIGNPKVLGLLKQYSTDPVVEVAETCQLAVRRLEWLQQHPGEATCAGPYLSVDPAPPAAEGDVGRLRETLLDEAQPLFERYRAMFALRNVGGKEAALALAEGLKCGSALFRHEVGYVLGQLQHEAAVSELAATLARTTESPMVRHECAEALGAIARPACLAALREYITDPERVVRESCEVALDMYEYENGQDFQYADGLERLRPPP
Protocol: The inhibiting effect of a model peptidomimetic, suitable to serve as carrier for hydroxypyridone warheads, on the activity of the purified eIF-5A-hydroxylating enzyme was studied in a cell-free system.
Enzyme activity was purified and determined as described by Abbruzzese et al., J. Biol. Chem. 261:3085-9 (1986), which is hereby incorporated by reference. Briefly, the enzyme is offered labeled deoxyhypusine-containingeIF-5A precursor. Following standard incubation conditions, the conversion into hypusine residues is measured by chromatographic amino acid separation after protein hydrolysis.

protein hydroxylases = assay: Inhibition of protein hydroxylases; assay type: biochemical; settings: no data shown
prolyl hydroxylase = settings: U.S. Pat. No. 4,937,266; cited from earlier work
certain human cells = settings: Ekblom et al.; cited from earlier work

T1 sequence (P13674 18-534): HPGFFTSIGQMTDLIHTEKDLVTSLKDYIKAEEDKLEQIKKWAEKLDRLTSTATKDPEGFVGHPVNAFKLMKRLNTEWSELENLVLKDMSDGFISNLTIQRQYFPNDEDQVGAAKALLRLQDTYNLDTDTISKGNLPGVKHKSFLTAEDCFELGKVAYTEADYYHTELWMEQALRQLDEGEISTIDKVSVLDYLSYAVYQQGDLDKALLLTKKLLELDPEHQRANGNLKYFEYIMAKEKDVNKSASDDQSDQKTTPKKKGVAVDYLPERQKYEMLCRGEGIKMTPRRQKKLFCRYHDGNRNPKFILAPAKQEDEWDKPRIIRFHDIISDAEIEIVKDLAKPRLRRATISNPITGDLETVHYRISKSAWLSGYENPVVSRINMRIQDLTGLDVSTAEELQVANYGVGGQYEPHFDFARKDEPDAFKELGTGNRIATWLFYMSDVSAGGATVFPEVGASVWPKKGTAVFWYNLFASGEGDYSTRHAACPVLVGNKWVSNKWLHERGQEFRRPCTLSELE
T1 sequence (P07237 18-508 partner): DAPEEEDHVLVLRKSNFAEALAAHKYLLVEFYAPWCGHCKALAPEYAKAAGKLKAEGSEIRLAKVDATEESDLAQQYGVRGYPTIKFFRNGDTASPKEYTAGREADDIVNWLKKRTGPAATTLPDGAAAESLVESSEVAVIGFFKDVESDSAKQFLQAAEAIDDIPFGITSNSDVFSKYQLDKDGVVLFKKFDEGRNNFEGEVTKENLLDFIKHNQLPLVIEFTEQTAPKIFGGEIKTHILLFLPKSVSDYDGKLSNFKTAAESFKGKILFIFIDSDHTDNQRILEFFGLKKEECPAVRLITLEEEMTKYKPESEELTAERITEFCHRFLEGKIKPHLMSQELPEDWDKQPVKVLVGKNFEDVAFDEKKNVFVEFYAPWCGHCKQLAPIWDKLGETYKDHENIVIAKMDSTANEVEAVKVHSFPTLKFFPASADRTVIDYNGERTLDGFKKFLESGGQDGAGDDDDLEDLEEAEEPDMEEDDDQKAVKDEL

SMILES: CCOC(=O)[C@@H](N)Cn1ccc(=O)c(O)c1 [--ethyl ester]
- Prolyl 4-hydroxylase ID50 (purified) [1]: 145 µM

SMILES: NC(CO)C1CCC(=O)NC(CO)C(=O)N(C(Cc2ccccc2)C(=O)O)NC1=O (stereo not drawn) [Mimetic A]
- deoxyhypusine-to-hypusine conversion / inhibition of purified deoxyhypusyl hydroxylase [6]: only weakly inhibitory
- deoxyhypusine-to-hypusine conversion / inhibition of purified deoxyhypusyl hydroxylase ([6]; listed as mimetic A): suppressed

SMILES: O=c1cc(CO)occ1O [kojic acid, reference compound]
- inhibition of endothelial cell proliferation ([4]; FIG. 9): does not inhibit EC proliferation
- inhibition of protein hydroxylases (protein hydroxylases): does not inhibit protein hydroxylases

SMILES: CC(C)(CO)[C@@H](O)C(=O)NCCC(=O)NCCSSCCNC(=O)CCNC(=O)[C@H](O)C(C)(C)CO [pantethine]
- effect on increased prolyl hydroxylase activity in liver with hepatic fibrosis (prolyl hydroxylase): inhibited an increased prolyl hydroxylase activity

SMILES: Cc1ncc(CO)c(C=NNC(=O)c2ccncc2)c1O [pyridoxal isonicotinyl hydrazone]
- effect on proliferation of certain human cells (certain human cells): stimulates the proliferation

Second part, led by results:

- inhibition of purified human prolyl 4-hydroxylase ([1]; cell-free system, FIG. 1): directly inhibit
- Prolyl 4-hydroxylase ID50 (purified) [1]: 133 µM
- inhibition of deoxyhypusyl hydroxylase ([2]; FIG. 3, assayed in vitro): directly inhibit
- Deoxyhypusyl hydroxylase ID50 (cellular) [2]: 90 µM
SMILES: Cc1c(O)c(=O)ccn1C [HK-1, 1,2-dimethyl-3-hydroxypyrid-4-one]
- non-specific or toxic effects ([3]; FIGS. 6, 7): did not result from non-specific or toxic effects
- reversibility of suppressive effects (collagen secretion, onset of DNA synthesis) ([3]; upon removal of compound): reversible
- inhibition of endothelial cell proliferation ([4]; FIG. 9, listed as deferiprone): blocks the proliferation; also recorded: inhibit endothelial cell proliferation
- appearance / viability of treated HUVEC on Matrigel (HUVEC; FIG. 10B): remain healthy and viable in appearance
- formation of capillary-like tubes on Matrigel (HUVEC; HUVEC, FIG. 10, listed as deferiprone): blocks the formation of tubular structures; also recorded: block the formation of capillary-like structures; also recorded: blocks capillary formation; also recorded: attach and spread, but do not form capillary-like tubes
- extraction by the liver from the portal blood [5]: rapidly extracted by the liver from the portal blood

- Prolyl 4-hydroxylase ID50 (purified) [1]: 145 µM
- Deoxyhypusyl hydroxylase ID50 (cellular) [2]: 50 µM
SMILES: CCc1c(O)c(=O)ccn1CC [HK-2]

- Prolyl 4-hydroxylase ID50 (purified) [1]: 210 µM
- Deoxyhypusyl hydroxylase ID50 (cellular) [2]: 60 µM
SMILES: CCOCn1ccc(=O)c(O)c1C [HK-15]

- Prolyl 4-hydroxylase ID50 (purified) [1]: 150 µM
- Deoxyhypusyl hydroxylase ID50 (cellular) [2]: 50 µM
SMILES: C=CCn1ccc(=O)c(O)c1C [HK-16]

- Prolyl 4-hydroxylase ID50 (purified) [1]: 130 µM
- Deoxyhypusyl hydroxylase ID50 (cellular) [2]: 58 µM
SMILES: CCn1ccc(=O)c(O)c1C [HK-26]

- Prolyl 4-hydroxylase ID50 (purified) [1]: 155 µM
- Deoxyhypusyl hydroxylase ID50 (cellular) [2]: 50 µM
SMILES: CCCn1ccc(=O)c(O)c1C [HK-27]
